From article PMC7203344, “Sirtuin 1 Inhibiting Thiocyanates (S1th)—A New Class of Isotype Selective Inhibitors of NAD^+ Dependent Lysine Deacetylases” (Frontiers in Oncology, 2020)

Key:
[1] = biological target: T1, human Sirt2 (Homo sapiens, UniProt Q8IXJ6); assay: Homogeneous ZMAL-based fluorescence assay, Sirt2; assay type: biochemical; settings: 4th round
T1 construct: made in house; host or cells: E. coli BL21 Star (DE3)
T1 sequence (Q8IXJ6 56-356): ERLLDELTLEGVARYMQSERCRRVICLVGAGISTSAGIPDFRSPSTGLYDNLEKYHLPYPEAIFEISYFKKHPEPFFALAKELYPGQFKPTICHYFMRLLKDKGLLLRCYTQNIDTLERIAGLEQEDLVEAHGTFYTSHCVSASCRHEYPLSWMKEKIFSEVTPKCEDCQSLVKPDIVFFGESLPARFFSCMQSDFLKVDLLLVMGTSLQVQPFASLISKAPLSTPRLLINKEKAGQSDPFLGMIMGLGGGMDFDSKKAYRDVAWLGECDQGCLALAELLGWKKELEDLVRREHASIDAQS
Procedure: (§1) Recombinant human Sirt5_37−310 was purchased readily in Tris Buffer [25 mM Tris, 100 mM NaCl, 5 mM DTT, 10% glycerol (v/v)] from Enzo Life Sciences (NY, USA). Human Sirt3_118−395 was expressed and purified as described previously ([54]). For expression of human Sirt1_134−747 and Sirt2_56−356 chemically competent cells of E. coli BL21 Star (DE3) were transformed with the expression vectors pET30S-hSirt1_134−747 or pET30S-hSirt2_56−356. Bacteria were grown at 37°C in 2×YT medium supplemented with 50 μg·mL^−1 of kanamycin to an OD600 of 0.6. Then isopropyl-β-D-1-thiogalactopyranoside (IPTG) was added to a final concentration of 1 mM to induce gene expression. After further cultivation at 20°C for 12 h, the cells were harvested by centrifugation for 15 min at 5,000 g. The cells were resuspended in lysis buffer [100 mM Tris/HCl buffer at pH 8.0, 150 mM NaCl and 10% (v/v) glycerol] and disrupted by ultrasonication (Branson Digital Sonifier 250) at 70% amplitude for 10 min (3 s working, 10 s pause). The crude extract was cleared by centrifugation at 100,000 g for 1 h, and the supernatant was loaded onto a Strep-Tactin Superflow cartridge (5 ml bed volume, IBA Lifescience, Germany). Target proteins were eluted with lysis buffer containing 5 mM D-Desthiobiotin (IBA Lifescience, Germany) and further separated by size-exclusion chromatography (Superdex S200 26/60, GE Healthcare, IL, USA) equilibrated in Tris/HCl buffer (20 mM, 150 mM NaCl, pH 8.0). Pure protein was concentrated by ultrafiltration, flash-frozen in liquid nitrogen and stored at −80°C until further use. Identity as well as purity were verified by SDS-PAGE ([55]) and protein concentration was determined by the bicinchoninic acid (BCA) method, using bovine serum albumin (BSA) as a standard ([56]). Deacetylase activity was confirmed to be NAD^+-dependent and could be inhibited with the physiological sirtuin inhibitor nicotinamide.
All compounds were tested in the trypsin-coupled high-throughput ZMAL-assay in black 96-well plates (OptiPlateTM−96F, black, 96 well, Pinch bar design, PerkinElmer, USA), using ZMAL (Z-Lys(acetyl)-AMC) as a substrate ([57]). Sirt1_134−747, Sirt2_56−356, and Sirt3_118−395 were mixed with 5 μL substrate (10.5 μM final assay concentration, diluted from a […] stock in DMSO) and 3 μL Inhibitor in DMSO at various concentrations or DMSO as a control [final DMSO concentration 5% (v/v)]. The mixture was supplemented with assay buffer (50 mM Tris/HCl, 137 mM NaCl, 2.7 mM KCl, 1 mM MgCL2, pH 8.0) to a total volume of 55 μL. Enzyme concentration was adjusted to get a final conversion of 20–30%. Addition of 5 μL NAD^+ (6 mM in assay buffer, final assay concentration of 500 μM) initiated the catalytic reaction and the plates were incubated at 37°C for 4 h with agitation at 140 rpm. The catalytic reaction was stopped by addition of 60 μL stop solution [50 mM Tris, 100 mM NaCl, 6.7% (V/V) DMSO, 5.5 U/μL trypsin, 8 μM nicotinamide, pH 8.0]. The plate was again incubated at 37°C and 140 rpm for 20 min to release free AMC from the deacetylated substrate by trypsin digestion. Afterwards, fluorescence intensity was measured in a microplate reader (λEx = 390 nm, λEm = 460 nm, BMG POLARstar Optima, BMG Labtech, Germany). An enzyme-free blank control and a 100% conversion control containing AMC instead of ZMAL were measured in addition. Inhibition was calculated in % in relation to a DMSO control after blank signal subtraction and IC50 values were determined using a non-linear regression to fit the dose-response curve with OriginPro 9G (OriginLab, USA). Pre-tests as well as IC50 determination was carried out at least twice in duplicates.

[2] = biological target: T2, human Sirt5 (Homo sapiens, UniProt Q9NXA8); assay: Homogeneous ZKsA-based fluorescence assay for Sirt5; assay type: biochemical; settings: inhibition tested @ 10 μM
T2 construct: Recombinant human Sirt5_37−310 was purchased readily in Tris Buffer; purchased Enzo Life Sciences (NY, USA)
T2 sequence (Q9NXA8 37-310): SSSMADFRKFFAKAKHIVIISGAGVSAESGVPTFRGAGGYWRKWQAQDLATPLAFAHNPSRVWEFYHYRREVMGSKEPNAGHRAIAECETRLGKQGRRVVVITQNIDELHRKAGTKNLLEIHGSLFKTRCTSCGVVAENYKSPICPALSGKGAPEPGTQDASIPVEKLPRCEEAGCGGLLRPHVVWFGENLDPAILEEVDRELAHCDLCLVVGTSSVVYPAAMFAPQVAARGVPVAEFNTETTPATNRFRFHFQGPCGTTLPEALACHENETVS
Procedure: as §1
Inhibition of Sirt5 was measured using a general procedure described before with small modifications ([58]). Sirt5 was purchased from Enzo Life Science (NY, USA) and used as received. Z-Lys(succ)-aminomethyl coumarin (ZKsA) was used as a substrate for Sirt5 mediated desuccinylation. In black 384-well non-binding plates (Greiner Bio-One, Monroe, NC) Sirt5 was mixed with 2 μL of ZKsA (1 mM stock solution in assay buffer [(50 mM Tris·HCl, 137 mM NaCl, 2.7 mM KCl, 1 mM MgCl2, pH 8.0, and 0.1% PEG8000), 100 μM final assay concentration], 1 μL of Inhibitor dissolved in DMSO or DMSO as a control [final DMSO concentration 5% (v/v)], 2 μL NAD^+ (5 mM stock solution in assay buffer, final assay concentration 500 μM) and filled up to a total volume of 20 μL with assay buffer. The mixture was incubated for 1 h at 37°C and 140 rpm before 4 μL of trypsin solution (50 mM Tris, 100 mM NaCl, pH 8.0, 6 mg/mL trypsin buffer, 1 mg/mL final assay concentration) was added to stop the enzymatic reaction. After 2 min of incubation at 37°C and 140 rpm fluorescence intensity was detected as described above. Sirt5 concentration was adjusted to 15–30% substrate conversion. A negative control without enzyme and a positive control containing AMC instead of ZKsA were performed as well. Inhibition was calculated in % in relation to a DMSO control and was determined in triplicates.

| SMILES | inhibition at 50 µM [1] | inhibition at 10 µM [2] |
| --- | --- | --- |
| N#CSc1cc(SC#N)c(N)nc1N [PR-619, reference compound] | 36% | 28% |
| N#CSc1cccc(NC(=O)[C@H]2CC=CC[C@H]2C(=O)O)c1 [S1th 10] | < 10% | < 10% |
| CCCCNC(=O)Nc1cccc(SC#N)c1 [S1th 11] | < 10% | < 10% |
| COc1ccc(SC#N)cc1OCC(=O)N(CCC#N)CCC#N [S1th 12] | < 10% | < 10% |
| N#CSc1cccc(NS(=O)(=O)c2ccc3c(c2)OCCO3)c1 [S1th 13] | < 10% | < 10% |
